Laboratory results reported in patent publication US6747033B2, “Fungicidal triazolopyrimid-7-ylideneamines” (BASF Aktiengesellschaft, priority 2000, dated 2004).
Where two headings read alike, the source gives them in different places.

Assays:
Plasmopara viticola = assay: In vivo fungicidal activity, Grape downy mildew (GDM); also: ranges in brackets are in %
Rhizoctonia solani = assay: In vitro fungicidal activity, Rice sheath blight (RHIZSO); assay type: cell-based; design: key: 0: None; 3: slight; 5: moderate; 7: severe; 9: complete; conditions: 3-7 days of incubation
Procedure: (§1) Test compounds are dissolved in acetone to give concentrations of 25, 10 and 1 ppm and are added to individual cell Walls (24-cell-well plates, Corning), which were previously filled with a suspension of ground plates, Corning), which were previously filled with a suspension of ground fungal mycelium in a chemically defined growth medium. After 3-7 days of incubation, inhibition of […] growth is recorded using the following scale: The data obtained are shown in Table II. [table]

Cercospora beticola = assay: In vivo fungicidal activity, Sugar Beet Cercospora (SBC); also: ranges in brackets are in %
Alternara solani = assay: In vivo fungicidal activity, Tomato early blight (TEB); also: ranges in brackets are in %
[1] = tested on: Pyricularia grisea f. sp. oryzae; assay type: in vivo; conditions: Rice Blast
Blumeria graminis = assay: In vivo fungicidal activity, Wheat powdery mildew (WPM); also: ranges in brackets are in %
Venturia inaequalis = assay: In vivo fungicidal activity, Apple Scab (AS); also: ranges in brackets are in %
Pythium ultimum = assay: In vitro fungicidal activity, Fruit rot (PYTHUL); assay type: cell-based; design: key: 0: None; 3: slight; 5: moderate; 7: severe; 9: complete; conditions: 3-7 days of incubation
Procedure: as §1

[2] = tested on: Pseudocercosporella herpotrichoides; assay: In vitro fungicidal activity, Cereal eye spot (PSDCHE); assay type: cell-based; design: key: 0: None; 3: slight; 5: moderate; 7: severe; 9: complete; conditions: 3-7 days of incubation
Procedure: as §1

Botrytis cinera = assay: In vivo fungicidal activity, Pepper Botrytis (PB); also: ranges in brackets are in %

## CCCn1cnn2c(=NC(C)C(F)(F)F)c(-c3c(F)cc(F)cc3F)c(Cl)nc12 (stereo not drawn) [Example 11]
Plasmopara viticola; 12.5 ppm spray
  GDM disease control rating: 0 (0)
Plasmopara viticola; 50 ppm spray
  GDM disease control rating: 0 (0)
Plasmopara viticola; 200 ppm spray
  GDM disease control rating: 3 (30-44)
Rhizoctonia solani; 1 ppm
  RHIZSO inhibition of mycelial growth rating: 0
Rhizoctonia solani; 10 ppm
  RHIZSO inhibition of mycelial growth rating: 0
Rhizoctonia solani; 25 ppm
  RHIZSO inhibition of mycelial growth rating: 0
Cercospora beticola; 12.5 ppm spray
  SBC disease control rating: 0 (0)
Cercospora beticola; 50 ppm spray
  SBC disease control rating: 0 (0)
Cercospora beticola; 200 ppm spray
  SBC disease control rating: 3 (30-44)
Alternara solani; 12.5 ppm spray
  TEB disease control rating: 0 (0)
Alternara solani; 50 ppm spray
  TEB disease control rating: 0 (0)
Alternara solani; 200 ppm spray
  TEB disease control rating: 0 (0)
[1]; 12.5 ppm spray
  RB disease control rating: 0 (0)
[1]; 50 ppm spray
  RB disease control rating: 3 (30-44)
[1]; 200 ppm spray
  RB disease control rating: 4 (45-59)
Blumeria graminis; 12.5 ppm spray
  WPM disease control rating: 0 (0)
Blumeria graminis; 50 ppm spray
  WPM disease control rating: 0 (0)
Blumeria graminis; 200 ppm spray
  WPM disease control rating: 0 (0)
Venturia inaequalis; 12.5 ppm spray
  AS disease control rating: 0 (0)
Venturia inaequalis; 50 ppm spray
  AS disease control rating: 6 (75-89)
Venturia inaequalis; 200 ppm spray
  AS disease control rating: 7 (90-95)
Pythium ultimum; 1 ppm
  PYTHU inhibition of mycelial growth rating: 0
Pythium ultimum; 10 ppm
  PYTHU inhibition of mycelial growth rating: 1
Pythium ultimum; 25 ppm
  PYTHU inhibition of mycelial growth rating: 1
[2]; 1 ppm
  PSDCH inhibition of mycelial growth rating: 0
[2]; 10 ppm
  PSDCH inhibition of mycelial growth rating: 0
[2]; 25 ppm
  PSDCH inhibition of mycelial growth rating: 0
Botrytis cinera; 12.5 ppm spray
  PB disease control rating: 0 (0)
Botrytis cinera; 50 ppm spray
  PB disease control rating: 0 (0)
Botrytis cinera; 200 ppm spray
  PB disease control rating: 0 (0)

## CCn1c(Cl)c(-c2c(F)cc(F)cc2F)c(=NC(C)C(F)(F)F)n2ncnc12 (stereo not drawn) [Example 3]
Plasmopara viticola; 12.5 ppm spray
  GDM disease control rating: 0 (0)
Plasmopara viticola; 50 ppm spray
  GDM disease control rating: 4 (45-59)
Plasmopara viticola; 200 ppm spray
  GDM disease control rating: 4 (45-59)
Rhizoctonia solani; 1 ppm
  RHIZSO inhibition of mycelial growth rating: 3
Rhizoctonia solani; 10 ppm
  RHIZSO inhibition of mycelial growth rating: 5
Rhizoctonia solani; 25 ppm
  RHIZSO inhibition of mycelial growth rating: 5
Cercospora beticola; 12.5 ppm spray
  SBC disease control rating: 0 (0)
Cercospora beticola; 50 ppm spray
  SBC disease control rating: 0 (0)
Cercospora beticola; 200 ppm spray
  SBC disease control rating: 0 (0)
Alternara solani; 12.5 ppm spray
  TEB disease control rating: 3 (30-44)
Alternara solani; 50 ppm spray
  TEB disease control rating: 3 (30-44)
Alternara solani; 200 ppm spray
  TEB disease control rating: 0 (0)
[1]; 12.5 ppm spray
  RB disease control rating: 0 (0)
[1]; 50 ppm spray
  RB disease control rating: 0 (0)
[1]; 200 ppm spray
  RB disease control rating: 5 (60-74)
Blumeria graminis; 12.5 ppm spray
  WPM disease control rating: 0 (0)
Blumeria graminis; 50 ppm spray
  WPM disease control rating: 0 (0)
Blumeria graminis; 200 ppm spray
  WPM disease control rating: 3 (30-44)
Venturia inaequalis; 12.5 ppm spray
  AS disease control rating: 0 (0)
Venturia inaequalis; 50 ppm spray
  AS disease control rating: 0 (0)
Venturia inaequalis; 200 ppm spray
  AS disease control rating: 6 (75-89)
Pythium ultimum; 1 ppm
  PYTHU inhibition of mycelial growth rating: 0
Pythium ultimum; 10 ppm
  PYTHU inhibition of mycelial growth rating: 0
Pythium ultimum; 25 ppm
  PYTHU inhibition of mycelial growth rating: 0
[2]; 1 ppm
  PSDCH inhibition of mycelial growth rating: 0
[2]; 10 ppm
  PSDCH inhibition of mycelial growth rating: 1
[2]; 25 ppm
  PSDCH inhibition of mycelial growth rating: 1
Botrytis cinera; 12.5 ppm spray
  PB disease control rating: 2 (15-29)
Botrytis cinera; 50 ppm spray
  PB disease control rating: 0 (0)
Botrytis cinera; 200 ppm spray
  PB disease control rating: 0 (0)

## CCCOc1cc(F)c(-c2c(Cl)nc3n(CCC)cnn3c2=NC(C)C(F)(F)F)c(F)c1 (stereo not drawn) [Example 9]
Plasmopara viticola; 12.5 ppm spray
  GDM disease control rating: 5 (60-74)
Plasmopara viticola; 50 ppm spray
  GDM disease control rating: 3 (30-44)
Plasmopara viticola; 200 ppm spray
  GDM disease control rating: 3 (30-44)
Rhizoctonia solani; 1 ppm
  RHIZSO inhibition of mycelial growth rating: 7
Rhizoctonia solani; 10 ppm
  RHIZSO inhibition of mycelial growth rating: 7
Rhizoctonia solani; 25 ppm
  RHIZSO inhibition of mycelial growth rating: 7
Cercospora beticola; 12.5 ppm spray
  SBC disease control rating: 8 (96-99)
Cercospora beticola; 50 ppm spray
  SBC disease control rating: 8 (96-99)
Cercospora beticola; 200 ppm spray
  SBC disease control rating: 8 (96-99)
Alternara solani; 12.5 ppm spray
  TEB disease control rating: 6 (75-89)
Alternara solani; 50 ppm spray
  TEB disease control rating: 8 (96-99)
Alternara solani; 200 ppm spray
  TEB disease control rating: 9 (100)
[1]; 12.5 ppm spray
  RB disease control rating: 0 (0)
[1]; 50 ppm spray
  RB disease control rating: 3 (30-44)
[1]; 200 ppm spray
  RB disease control rating: 4 (45-59)
Blumeria graminis; 12.5 ppm spray
  WPM disease control rating: 2 (15-29)
Blumeria graminis; 50 ppm spray
  WPM disease control rating: 6 (75-89)
Blumeria graminis; 200 ppm spray
  WPM disease control rating: 7 (90-95)
Venturia inaequalis; 12.5 ppm spray
  AS disease control rating: 0 (0)
Venturia inaequalis; 50 ppm spray
  AS disease control rating: 6 (75-89)
Venturia inaequalis; 200 ppm spray
  AS disease control rating: 6 (75-89)
Pythium ultimum; 1 ppm
  PYTHU inhibition of mycelial growth rating: 0
Pythium ultimum; 10 ppm
  PYTHU inhibition of mycelial growth rating: 0
Pythium ultimum; 25 ppm
  PYTHU inhibition of mycelial growth rating: 0
[2]; 1 ppm
  PSDCH inhibition of mycelial growth rating: 3
[2]; 10 ppm
  PSDCH inhibition of mycelial growth rating: 3
[2]; 25 ppm
  PSDCH inhibition of mycelial growth rating: 5
Botrytis cinera; 12.5 ppm spray
  PB disease control rating: 2 (15-29)
Botrytis cinera; 50 ppm spray
  PB disease control rating: 1 (1-14)
Botrytis cinera; 200 ppm spray
  PB disease control rating: 2 (15-29)

## Cn1c(Cl)c(-c2c(F)cc(F)cc2F)c(=NCC(F)(F)F)n2ncnc12 [Example 1A, N-(5-chloro-4-methyl-6-(2,4,6-trifluorophenyl)-4H[1,2,4]triazolo[1,5-α]pyrimidin-7-ylidene]-N-(2,2,2-trifluoroethyl)-amine]
Plasmopara viticola; 12.5 ppm spray
  GDM disease control rating: 5 (60-74)
Plasmopara viticola; 50 ppm spray
  GDM disease control rating: 6 (75-89)
Plasmopara viticola; 200 ppm spray
  GDM disease control rating: 4 (45-59)
Rhizoctonia solani; 1 ppm
  RHIZSO inhibition of mycelial growth rating: 5
Rhizoctonia solani; 10 ppm
  RHIZSO inhibition of mycelial growth rating: 7
Rhizoctonia solani; 25 ppm
  RHIZSO inhibition of mycelial growth rating: 7
Cercospora beticola; 12.5 ppm spray
  SBC disease control rating: 0 (0)
Cercospora beticola; 50 ppm spray
  SBC disease control rating: 6 (75-89)
Cercospora beticola; 200 ppm spray
  SBC disease control rating: 8 (96-99)
Alternara solani; 12.5 ppm spray
  TEB disease control rating: 0 (0)
Alternara solani; 50 ppm spray
  TEB disease control rating: 0 (0)
Alternara solani; 200 ppm spray
  TEB disease control rating: 3 (30-44)
[1]; 12.5 ppm spray
  RB disease control rating: 0 (0)
[1]; 50 ppm spray
  RB disease control rating: 0 (0)
[1]; 200 ppm spray
  RB disease control rating: 6 (75-89)
Blumeria graminis; 12.5 ppm spray
  WPM disease control rating: 0 (0)
Blumeria graminis; 50 ppm spray
  WPM disease control rating: 7 (90-95)
Blumeria graminis; 200 ppm spray
  WPM disease control rating: 8 (96-99)
Venturia inaequalis; 12.5 ppm spray
  AS disease control rating: 0 (0)
Venturia inaequalis; 50 ppm spray
  AS disease control rating: 6 (75-89)
Venturia inaequalis; 200 ppm spray
  AS disease control rating: 9 (100)
Pythium ultimum; 1 ppm
  PYTHU inhibition of mycelial growth rating: 0
Pythium ultimum; 10 ppm
  PYTHU inhibition of mycelial growth rating: 0
Pythium ultimum; 25 ppm
  PYTHU inhibition of mycelial growth rating: 0
[2]; 1 ppm
  PSDCH inhibition of mycelial growth rating: 0
[2]; 10 ppm
  PSDCH inhibition of mycelial growth rating: 0
[2]; 25 ppm
  PSDCH inhibition of mycelial growth rating: 0
Botrytis cinera; 12.5 ppm spray
  PB disease control rating: 0 (0)
Botrytis cinera; 50 ppm spray
  PB disease control rating: 5 (60-74)
Botrytis cinera; 200 ppm spray
  PB disease control rating: 0 (0)

## N-[5-chloro-3-methyl-6-(2,4,6-trifluorophenyl)-4H-[1,2,4]triazolo[1,5-α]pyrimidin-7-ylidene]-N-(2,2,2-trifluoroethyl)-amine [Example 1B]
Plasmopara viticola; 12.5 ppm spray
  GDM disease control rating: 0 (0)
Plasmopara viticola; 50 ppm spray
  GDM disease control rating: 0 (0)
Plasmopara viticola; 200 ppm spray
  GDM disease control rating: 7 (90-95)
Rhizoctonia solani; 1 ppm
  RHIZSO inhibition of mycelial growth rating: 5
Rhizoctonia solani; 10 ppm
  RHIZSO inhibition of mycelial growth rating: 5
Rhizoctonia solani; 25 ppm
  RHIZSO inhibition of mycelial growth rating: 5
Cercospora beticola; 12.5 ppm spray
  SBC disease control rating: 0 (0)
Cercospora beticola; 50 ppm spray
  SBC disease control rating: 6 (75-89)
Cercospora beticola; 200 ppm spray
  SBC disease control rating: 6 (75-89)
Alternara solani; 12.5 ppm spray
  TEB disease control rating: 0 (0)
Alternara solani; 50 ppm spray
  TEB disease control rating: 2 (15-29)
Alternara solani; 200 ppm spray
  TEB disease control rating: 4 (45-59)
[1]; 12.5 ppm spray
  RB disease control rating: 0 (0)
[1]; 50 ppm spray
  RB disease control rating: 0 (0)
[1]; 200 ppm spray
  RB disease control rating: 5 (60-74)
Blumeria graminis; 12.5 ppm spray
  WPM disease control rating: 0 (0)
Blumeria graminis; 50 ppm spray
  WPM disease control rating: 0 (0)
Blumeria graminis; 200 ppm spray
  WPM disease control rating: 0 (0)
Venturia inaequalis; 12.5 ppm spray
  AS disease control rating: 4 (45-59)
Venturia inaequalis; 50 ppm spray
  AS disease control rating: 4 (45-59)
Venturia inaequalis; 200 ppm spray
  AS disease control rating: 5 (60-74)
Pythium ultimum; 1 ppm
  PYTHU inhibition of mycelial growth rating: 0
Pythium ultimum; 10 ppm
  PYTHU inhibition of mycelial growth rating: 1
Pythium ultimum; 25 ppm
  PYTHU inhibition of mycelial growth rating: 5
[2]; 1 ppm
  PSDCH inhibition of mycelial growth rating: 0
[2]; 10 ppm
  PSDCH inhibition of mycelial growth rating: 1
[2]; 25 ppm
  PSDCH inhibition of mycelial growth rating: 3
Botrytis cinera; 12.5 ppm spray
  PB disease control rating: 0 (0)
Botrytis cinera; 50 ppm spray
  PB disease control rating: 0 (0)
Botrytis cinera; 200 ppm spray
  PB disease control rating: 6 (75-89)
